Source: patent publication US6815447B2, “N-type calcium channel antagonists for the treatment of pain” (Astrazeneca AB, priority 2000, dated 2004)

target: N-type calcium channel (Homo sapiens, UniProt Q00975); experiment: N-channel FLIPR assay (inhibition of K+-evoked calcium flux in neuronally differentiated IMR32 cells); format: cell-based; details: 80 mM K+ stimulus, read-out: IC50 for the N-type calcium channel, as measured by the FLIPR assay
Sequence (Q00975 whole entry): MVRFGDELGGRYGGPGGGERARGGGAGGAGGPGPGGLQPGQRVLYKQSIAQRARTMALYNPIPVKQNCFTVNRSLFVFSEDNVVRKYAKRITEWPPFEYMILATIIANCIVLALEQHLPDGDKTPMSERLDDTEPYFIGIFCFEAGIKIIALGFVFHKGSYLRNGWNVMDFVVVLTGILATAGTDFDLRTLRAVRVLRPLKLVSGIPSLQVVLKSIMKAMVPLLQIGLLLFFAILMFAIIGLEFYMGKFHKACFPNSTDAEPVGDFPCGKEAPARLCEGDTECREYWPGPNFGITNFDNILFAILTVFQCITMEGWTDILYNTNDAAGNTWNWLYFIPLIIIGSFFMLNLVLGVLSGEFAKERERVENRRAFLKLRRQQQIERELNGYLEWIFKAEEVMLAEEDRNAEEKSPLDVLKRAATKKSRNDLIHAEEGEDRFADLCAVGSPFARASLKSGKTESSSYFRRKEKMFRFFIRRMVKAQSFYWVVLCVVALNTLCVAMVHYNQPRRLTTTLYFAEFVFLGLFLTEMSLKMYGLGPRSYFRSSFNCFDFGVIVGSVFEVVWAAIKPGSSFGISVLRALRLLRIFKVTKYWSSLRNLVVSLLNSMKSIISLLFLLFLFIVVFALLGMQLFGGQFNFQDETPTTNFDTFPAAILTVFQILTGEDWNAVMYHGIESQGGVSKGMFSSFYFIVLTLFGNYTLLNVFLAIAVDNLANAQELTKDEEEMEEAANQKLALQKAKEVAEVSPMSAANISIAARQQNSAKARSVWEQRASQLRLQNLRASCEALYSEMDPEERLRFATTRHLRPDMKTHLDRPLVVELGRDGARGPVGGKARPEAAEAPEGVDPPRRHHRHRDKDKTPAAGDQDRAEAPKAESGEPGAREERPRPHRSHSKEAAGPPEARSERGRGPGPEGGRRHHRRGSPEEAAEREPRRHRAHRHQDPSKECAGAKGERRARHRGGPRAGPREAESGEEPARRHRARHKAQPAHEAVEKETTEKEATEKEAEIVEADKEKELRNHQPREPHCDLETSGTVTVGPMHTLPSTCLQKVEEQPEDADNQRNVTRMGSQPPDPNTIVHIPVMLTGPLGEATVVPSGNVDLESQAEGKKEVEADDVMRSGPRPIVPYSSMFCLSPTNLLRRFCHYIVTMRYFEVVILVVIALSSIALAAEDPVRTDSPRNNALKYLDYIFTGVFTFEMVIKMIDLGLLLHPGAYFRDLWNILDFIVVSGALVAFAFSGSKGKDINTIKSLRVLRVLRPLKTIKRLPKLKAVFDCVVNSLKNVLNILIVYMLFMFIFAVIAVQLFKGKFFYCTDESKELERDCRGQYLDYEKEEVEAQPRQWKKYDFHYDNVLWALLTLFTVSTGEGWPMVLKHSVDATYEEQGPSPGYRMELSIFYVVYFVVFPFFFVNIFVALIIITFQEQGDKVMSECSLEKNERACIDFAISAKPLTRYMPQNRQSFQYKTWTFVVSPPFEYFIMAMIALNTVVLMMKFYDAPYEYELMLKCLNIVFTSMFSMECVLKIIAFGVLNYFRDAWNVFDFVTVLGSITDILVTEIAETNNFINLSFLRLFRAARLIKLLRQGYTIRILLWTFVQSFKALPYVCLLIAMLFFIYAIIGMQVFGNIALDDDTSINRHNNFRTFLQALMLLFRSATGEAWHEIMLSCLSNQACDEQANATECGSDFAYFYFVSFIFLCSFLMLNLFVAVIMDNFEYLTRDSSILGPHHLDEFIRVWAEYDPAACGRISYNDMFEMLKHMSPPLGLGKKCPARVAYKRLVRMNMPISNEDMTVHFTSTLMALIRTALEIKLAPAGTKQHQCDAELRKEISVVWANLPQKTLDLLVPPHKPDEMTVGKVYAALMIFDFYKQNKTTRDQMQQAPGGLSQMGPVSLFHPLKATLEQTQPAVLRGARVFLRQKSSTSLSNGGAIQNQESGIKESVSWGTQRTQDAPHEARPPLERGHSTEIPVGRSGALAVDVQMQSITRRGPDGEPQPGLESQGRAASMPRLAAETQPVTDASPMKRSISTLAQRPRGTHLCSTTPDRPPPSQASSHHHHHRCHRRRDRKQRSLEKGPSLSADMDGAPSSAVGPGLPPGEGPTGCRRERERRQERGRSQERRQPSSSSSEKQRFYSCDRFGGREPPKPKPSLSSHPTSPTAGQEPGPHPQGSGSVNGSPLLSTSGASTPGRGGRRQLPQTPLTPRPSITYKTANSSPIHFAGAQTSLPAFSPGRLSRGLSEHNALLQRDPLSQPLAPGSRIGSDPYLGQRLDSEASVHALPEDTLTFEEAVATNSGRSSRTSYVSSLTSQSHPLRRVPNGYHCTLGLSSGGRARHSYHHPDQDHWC
Sequence (P54284 whole entry partner): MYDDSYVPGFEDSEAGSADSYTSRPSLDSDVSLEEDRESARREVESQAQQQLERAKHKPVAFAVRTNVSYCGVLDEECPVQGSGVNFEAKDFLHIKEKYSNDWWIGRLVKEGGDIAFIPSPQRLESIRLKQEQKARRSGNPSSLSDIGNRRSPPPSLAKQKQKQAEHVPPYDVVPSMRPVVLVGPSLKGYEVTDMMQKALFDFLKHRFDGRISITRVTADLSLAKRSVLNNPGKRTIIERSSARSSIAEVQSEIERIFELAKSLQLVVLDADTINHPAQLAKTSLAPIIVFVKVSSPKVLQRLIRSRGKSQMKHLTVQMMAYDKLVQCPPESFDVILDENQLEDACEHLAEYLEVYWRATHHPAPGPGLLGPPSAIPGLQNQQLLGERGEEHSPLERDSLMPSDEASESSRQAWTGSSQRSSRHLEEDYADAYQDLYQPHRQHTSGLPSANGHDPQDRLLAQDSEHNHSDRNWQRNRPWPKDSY
Sequence (P54289 25-956 partner limits assumed): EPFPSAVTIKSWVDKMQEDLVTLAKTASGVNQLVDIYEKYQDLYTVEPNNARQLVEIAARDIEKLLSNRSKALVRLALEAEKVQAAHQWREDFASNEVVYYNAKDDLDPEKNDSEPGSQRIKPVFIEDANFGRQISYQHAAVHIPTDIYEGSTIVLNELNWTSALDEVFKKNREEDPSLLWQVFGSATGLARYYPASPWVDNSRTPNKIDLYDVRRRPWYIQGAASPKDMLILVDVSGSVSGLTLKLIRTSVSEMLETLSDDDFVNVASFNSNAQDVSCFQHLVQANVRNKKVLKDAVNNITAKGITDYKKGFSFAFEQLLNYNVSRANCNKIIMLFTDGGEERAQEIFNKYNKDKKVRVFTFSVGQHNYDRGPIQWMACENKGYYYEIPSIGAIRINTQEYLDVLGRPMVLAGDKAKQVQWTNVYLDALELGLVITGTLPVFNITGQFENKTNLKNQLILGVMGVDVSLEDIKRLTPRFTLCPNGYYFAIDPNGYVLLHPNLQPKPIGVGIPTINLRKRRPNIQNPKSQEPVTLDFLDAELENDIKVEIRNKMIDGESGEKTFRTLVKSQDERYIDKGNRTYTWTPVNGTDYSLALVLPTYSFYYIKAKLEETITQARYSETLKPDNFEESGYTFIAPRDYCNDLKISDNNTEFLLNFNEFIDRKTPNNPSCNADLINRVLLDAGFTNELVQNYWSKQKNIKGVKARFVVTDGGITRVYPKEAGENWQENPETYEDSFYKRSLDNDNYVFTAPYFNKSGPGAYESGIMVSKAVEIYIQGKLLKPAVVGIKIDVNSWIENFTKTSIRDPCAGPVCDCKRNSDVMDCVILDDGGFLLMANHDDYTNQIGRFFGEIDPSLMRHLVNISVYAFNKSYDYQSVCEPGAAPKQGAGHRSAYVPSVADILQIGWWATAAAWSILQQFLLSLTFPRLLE
Sequence (P54289 957-1103 partner limits assumed): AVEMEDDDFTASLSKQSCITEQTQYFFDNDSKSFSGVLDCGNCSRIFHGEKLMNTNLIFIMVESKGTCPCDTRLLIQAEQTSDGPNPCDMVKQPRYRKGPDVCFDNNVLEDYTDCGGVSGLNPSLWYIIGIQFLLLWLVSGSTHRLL

Row | SMILES | IC50 [µM]
1 | Cc1cc(N)c2cc(Nc3cc(-c4cccc(F)c4)nc(N)n3)ccc2n1 [Example 74, N6-[2-Amino-6-(3-fluoro-phenyl)-pyrimidin-4-yl]-2-methyl-quinoline-4,6-diamine] | 3.56
2 | Nc1nc(Nc2ccc3nc(-c4ccccc4)cc(N)c3c2)cc(C(F)(F)F)n1 [Example 4, N6-(2-Amino-6-trifluoromethyl-pyrimidin-4-yl)-2-phenyl-quinoline-4,6-diamine] | 3.57
3 | Cc1cc(N)c2cc(Nc3cc(-c4ccccc4F)nc(N)n3)ccc2n1 [Example 66, N6-[2-Amino-6-(2-fluoro-phenyl)-pyrimidin-4-yl]-2-methyl-quinoline-4,6-diamine] | 2.37
4 | COc1ccccc1-c1cc(Nc2ccc3nc(-c4ccccc4)cc(N)c3c2)nc(N)n1 [Example 75, N6-[2-Amino-6-(2-methoxy-phenyl)-pyrimidin-4-yl]-2-phenyl-quinoline-4,6-diamine] | 10.5
